Assay results from patent US9873667B2, “Arylsulfanyl compounds and compositions for delivering active agents” (EMISPHERE TECHNOLOGIES INC., priority 2006, dated 2018).

Experiments:
[1] = Oral delivery of LHRH with delivery agent; plasma LHRH concentration; type: in vivo, male Sprague-Dawley rats; details: Delivery Agent: 200 mg/kg, LHRH: 1 mg/kg
Description: Oral gavage dosing solutions of delivery agent compound and LHRH in phosphate buffer were prepared by mixing. A solution of the delivery agent compound was made either with the sodium salt of the delivery agent compound or by converting the free acid to its sodium salt. A solution of the delivery agent compound was prepared in phosphate buffer and stirred, adding one equivalent of sodium hydroxide (1.0 N) when making the sodium salt. The final dosing solutions were prepared by mixing the delivery agent compound solution with a LHRH stock solution (2.75 ml with a concentration of 20 mg/ml in aqueous solution). The pH was adjusted, if necessary, to between about 7 and 8.8.
(§1) Male Sprague-Dawley rats weighing between about 250-300 g were fasted for 24 hours. A dosing group of five animals was administered one of the dosing solutions. An 11 cm Rusch 8 French catheter was adapted to a 1 ml syringe with a pipette tip. The syringe was filled with the dosing solution by drawing the solution through the catheter, which was then wiped dry. The catheter was placed down the esophagus leaving 1 cm of tubing past the incisors. The dosing solution was administered by pressing the syringe plunger.
Blood samples were collected through retroorbital bleeding of approximately 0.4 ml of blood volume using EDTA tubes at time=0 (pre-dose), 2, 10, 15 and 30 minutes. The five samples from each time period were pooled. Previous studies indicated baseline values of about zero. The maximum absorption at the Tmax is reported below in Table 7. As controls, 4-(3-methyl phenoxy) butyric acid (D.A. “B”), the mesylate salt of (4-(8-(2-hydroxyphenoxy)octyl) morpholine (D.A. “C”), 4-(4-(2-hydroxyphenoxy)butyl) morpholine (D.A. “D”), and 4-(6-(2-hydroxyphenoxy)hexyl) morpholine (D.A. “E”) were also administered according to the same protocol and their results are also shown in FIG. 6.

Blood glucose levels = experiment: Oral delivery of insulin with delivery agent compound; blood glucose by glucometer; type: in vivo, male Sprague-Dawley rats
Description: Insulin stock solution (15 mg/ml) (Human zinc insulin, Calbiochem-Novabiochem Corp., La Jolla, Calif.) was prepared with deionized water. Oral dosing compositions containing 200 mg/kg of delivery agent compound and 0.5 mg/kg of insulin in aqueous solution were prepared with the delivery agent compound shown in Table 1 below. Either the sodium salt of the delivery agent compound was used or the free acid was converted to the sodium salt with one equivalent of sodium hydroxide.
The dosing solution was administered to fasted male Sprague-Dawley rats by oral gavage with an average weight of about 225-250 grams. Blood glucose levels were then determined by glucometer (One Touch Ultra®, LifeScan, Inc.) and compared to vehicle control (1 ml/kg of water). Samples were collected prior to dosing (time 0) and at 15, 30, 45 and 60 minutes after dosing. The % glucose reduction values in Table 1 are values found at the C minimum, and are an average % reduction with respect to the number of times the experiment was run for each delivery agent.
0.5 mg/kg of Insulin and 25-100 mg/kg of delivery agent compound (particular amount shown in Table 2 below) was administered to male Sprague-Dawley rats with an average weight of about 225-250 grams. The purpose of this test was to ascertain the dose response of the delivery agent compound. Glucose reduction was determined as set forth in connection with the data in Table 1.
Insulin Titrations were performed with Delivery Agent 29 in order to gauge the effect of varying dosages of insulin.

[2] = test system: activated partial thromboplastin time (APTT); experiment: Intracolonic delivery of heparin with delivery agent; clotting time (APTT); type: in vivo, male Sprague-Dawley rats; details: Delivery Agent 50 mg/kg, USP Heparin 25 mg/kg; for Tmax: time of peak APTT
Description: Oral gavage and/or intracolonic (IC) dosing solutions containing delivery agent compound and heparin sodium USP were prepared in 25% aqueous propylene glycol. Either the sodium salt of the delivery agent compound was used or the free acid was converted to the sodium salt with one equivalent of sodium hydroxide. The delivery agent compound and heparin (about 166-182 IU/mg) were mixed by vortex as dry powders. This dry mixture was dissolved in 25% v/v aqueous propylene glycol, vortexed, and placed in a sonicator (about 37° C.). The pH was adjusted to about 7 (6.5-8.5) with aqueous NaOH (2N). The dosing solution was sonicated to produce a clear solution. The final volume was adjusted to about 3.0 ml.
as §1, with “about 275-350” for “about 250-300”, “24 hours and anesthetized with ketamine hydrochloride (88 mg/kg) intramuscularly immediately prior to dosing and again as needed to maintain anesthesia.” for “24 hours.”, “animals were” for “animals was”, “solutions. For oral gavage dosing, an” for “solutions. An”, “with” for “with the”
For intracolonic (IC) dosing, a 7.5 cm, 8 French Rusch catheter was adapted to a 1 ml syringe with a pipette tip. The dosing catheter was inserted into the colon through the anus until the tube was no longer visible. The dosing solution was expressed slowly into the colon by pressing the syringe plunger.
Citrated blood samples were collected by cardiac puncture following the administration of ketamine (88 mg/kg), typically at 0.25, 0.5, 1.0 and 1.5 hours after dosing. Heparin absorption was verified by an increase in clotting time measured by the activated partial thromboplastin time (APTT) according to the method of Henry, J. B., Clinical Diagnosis and Management by Laboratory Methods, Philadelphia, Pa., W.B. Saunders (1979), which is hereby incorporated by reference. Previous studies indicated baseline values of about 20 seconds. Results from the animals in each group were averaged for each time points and the highest of these averages (i.e. mean peak APTT) is reported.

[3] = dose response, Delivery Agent Compound 50 mg/kg, Insulin 0.5 mg/kg
[4] = oral gavage, 200 mg/kg Delivery Agent Compound, 0.5 mg/kg Insulin, value at C minimum vs vehicle control

| melting point | SMILES | % Glucose Reduction (Blood glucose levels; [4]) | further results |
| --- | --- | --- | --- |
| 81 to 82 °C | COc1ccccc1SCCCCCC(=O)O [Compound 3, 6-(2-Methoxy-phenylsulfanyl)-hexanoic acid] | – | Tmax [1]: 5 min |
| 65 to 66 °C | COc1ccccc1SCCCCCCCCCC(=O)O [Compound 4, 10-(2-Methoxy-phenylsulfanyl)-decanoic acid] | – | Tmax [1]: 5 min |
| 49 to 50 °C | O=C(O)CCCCCCCSc1ccccc1O [Compound 5, 8-(2-Hydroxy-phenylsulfanyl)-octanoic acid] | – | % Glucose Reduction (Blood glucose levels; [3]): −13.5%; % Glucose Reduction (Blood glucose levels; dose response, Delivery Agent Compound 100 mg/kg, Insulin 0.5 mg/kg): −18.2%; Tmax [1]: 5 min |
| 58 to 59 °C | O=C(O)CCCCCCCCCSc1ccccc1O [Compound 8, 10-(2-Hydroxy-phenylsulfanyl)-decanoic acid] | – | % Glucose Reduction (Blood glucose levels; dose response, Delivery Agent Compound 25 mg/kg, Insulin 0.5 mg/kg): −9.7%; % Glucose Reduction (Blood glucose levels; [3]): −30.5% |
| 100 to 102 °C | Cc1ccc(C)c(SCCC(=O)O)c1 [Compound 9, 3-(2,5-Dimethyl-phenylsulfanyl)-propionic acid] | – | – |
| 66 to 68 °C | COc1ccc(SCCCCCCCC(=O)O)cc1 [Compound 10, 8-(4-Methoxy-phenylsulfanyl)-octanoic acid] | – | – |
| 94 to 95 °C | O=C(O)CCCCCCCSc1ccc(O)cc1 [Compound 11, 8-(4-Hydroxy-phenylsulfanyl)-octanoic acid] | – | APTT (mean peak) [2]: 300.0 s; Tmax [2]: 30.0 min |
| 77 to 78 °C | O=C(O)CCCSc1ccccc1O [Compound 12, 4-(2-Hydroxy-phenylsulfanyl)-butyric acid] | – | – |
| – | COc1ccc(SCC(=O)O)cc1 [Compound 13, (4-Methoxy-phenylsulfanyl)-acetic acid] | −18.2 ± 17.4% | – |
| – | COc1ccccc1SCCCCCCC(=O)O [Compound 16, 7-(2-Methoxy-phenylsulfanyl)-heptanoic acid] | −38.9 ± 32.7% | – |
| – | COc1ccccc1SCCCCC(=O)O [Compound 19, 5-(2-Methoxy-phenylsulfanyl)-pentanoic acid] | −33.6 ± 32.4% | – |
| – | COc1cccc(SCCCCCCCCCC(=O)O)c1 [Compound 20, 10-(3-Methoxy-phenylsulfanyl)-decanoic acid] | −33.9 ± 41.8% | – |
| – | COc1cccc(SCCCCCC(=O)O)c1 [Compound 21, 6-(3-Methoxy-phenylsulfanyl)-hexanoic acid] | −19.4 ± 6.6% | – |
| – | COc1cccc(SCCCCCCCC(=O)O)c1 [Compound 22] | −3.7 ± 9.4% | – |
| – | O=C(O)CCCCSc1cccc(Cl)c1 [Compound 24, 5-(3-Chloro-phenylsulfanyl)-pentanoic acid] | −10.0 ± 17.7% | – |
| – | O=C(O)CCCCSc1ccccc1Cl [Compound 25, 5-(2-Chloro-phenylsulfanyl)-pentanoic acid] | −16.0 ± 13.4% | – |
| – | COc1cccc(SCCCC(=O)O)c1 [Compound 27, 4-(3-Methoxy-phenylsulfanyl)-butyric acid] | −47.6 ± 17.4% | – |
| – | O=C(O)CCCSc1cccc(Cl)c1 [Compound 29, 4-(3-Chloro-phenylsulfanyl)-butyric acid] | – | % Glucose Reduction (Blood glucose levels; insulin titration, Delivery Agent 200 mg/kg, Dose of Insulin 0.00 mg/kg): −6.8%; % Glucose Reduction (Blood glucose levels; insulin titration, Delivery Agent 200 mg/kg, Dose of Insulin 0.25 mg/kg): −31.4%; % Glucose Reduction (Blood glucose levels; insulin titration, Delivery Agent 200 mg/kg, Dose of Insulin 0.50 mg/kg): −30.8% |

| melting point | SMILES | % Glucose Reduction (Blood glucose levels; [4]) | further results |
| --- | --- | --- | --- |
| – | O=C(O)CCCCCSc1cccc(Cl)c1 [Compound 32, 6-(3-Chloro-phenylsulfanyl)-hexanoic acid] | −15.2 ± 28.9% | – |
| 92 to 93 °C | O=C(O)CCCCCCCSc1ccc(Cl)cc1 [Compound 33, 8-(4-Chloro-phenylsulfanyl)-octanoic acid] | – | – |
| 100 to 101 °C | O=C(O)CCCSc1ccc(Cl)cc1 [Compound 34, 4-(4-Chloro-phenylsulfanyl)-butyric acid] | – | – |
| 92 to 94 °C | O=C(O)CCCCCSc1ccc(O)cc1 [Compound 35, 6-(4-Hydroxy-phenylsulfanyl)-hexanoic acid] | – | APTT (mean peak) [2]: 100.0 s; Tmax [2]: 30.0 min |
| – | O=C(O)CSc1cc(Cl)ccc1Cl [Compound 40, (2,5-dichloro-phenylsulfanyl)-acetic acid] | −6.0 ± 17.5% | – |
| – | O=C(O)CSc1ccc(Cl)c(Cl)c1 [Compound 42, (3,4-dichloro-phenylsulfanyl)-acetic acid] | −22.1 ± 5.4% | – |
| – | O=C(O)CCSc1ccccc1Cl [Compound 44, 3-(2-Chloro-phenylsulfanyl)-propionic acid] | −7.8 ± 16.5% | – |
| – | O=C(O)CCSc1cccc(Cl)c1 [Compound 45, 3-(3-Chloro-phenylsulfanyl)-propionic acid] | −6.5 ± 21.2% | – |
| – | O=C(O)CSc1cccc(O)c1 [Compound 46, (3-Hydroxy-phenylsulfanyl)-acetic acid] | 0.3 ± 27.7% | – |
| – | O=C(O)CCCSc1cc(Cl)ccc1Cl [Compound 50, 4-(2,5-dichloro-phenylsulfanyl)-butyric acid] | −15.8 ± 10.6% | – |
| – | O=C(O)CSc1cccc(F)c1 [Compound 51, (3-Fluoro-phenylsulfanyl)-acetic acid] | −24.9 ± 6.2% | – |
| – | O=C(O)CCCSc1ccc(Cl)c(Cl)c1 [Compound 53, 4-(3,4-dichloro-phenylsulfanyl)-butyric acid] | −14.8 ± 7.0% | – |
| – | O=C(O)CCCSc1ccccc1F [Compound 54, 4-(2-Fluoro-phenylsulfanyl)-butyric acid] | −37.4 ± 26.0% | – |
| – | O=C(O)CSc1ccc(F)cc1 [Compound 55, (4-Fluoro-phenylsulfanyl)-acetic acid] | −20.9 ± 17.5% | – |
| – | O=C(O)CCCSc1ccc(F)cc1 [Compound 56] | −4.5 ± 11.1% | – |
| – | O=C(O)CCCCCSc1ccc(F)cc1 [Compound 57, 6-(4-Fluoro-phenylsulfanyl)-hexanoic acid] | −11.0 ± 15.7% | – |
| 73 to 74 °C | Cc1ccc(C)c(SCC(=O)O)c1 [Compound 58, (2,5-Dimethyl-phenylsulfanyl)-acetic acid] | −18.2% | – |
